Data: patent US20250326732A1 (Pretzel Therapeutics, Inc., priority 2021, published 2025)

target: POLRMT (Homo sapiens (Human), UniProt O00411); experiment: homogeneous TR-FRET assay of mitochondrial transcription (inhibition of POLRMT); assay type: biochemical; settings: 7.5 nM POLRMT, 15 nM TFB2M, 30 nM TFAM, 0.5 nM DNA template, 500 μM NTPs, 37° C. for 60 minutes
Method: The ability of some compounds of the present invention to inhibit POLRMT were determined in a homogeneous TR-FRET Assay using high-throughput screening in a 384-well plate format. […] Detection of the product is facilitated by hybridization of two DNA-oligonucleotide probes to specific and adjacent sequences within the RNA product sequence. Upon annealing of the probes, two fluorophores are coupled directly to an acceptor nucleotide probe (ATTO647, 5′), or introduced via a coupled streptavidin with a biotinylated donor nucleotide probe (Europium cryptate) that is brought into sufficient proximity to serve as a fluorescence-donor-acceptor pair. Thus, a FRET signal at 665 nm is generated upon excitation at 340 nm.
The DNA template is restriction linearized proximal to the promotor 3′-end (pUC-LSP). […] No nucleotide triphosphate mix is added to negative control samples. Microplates with compounds to be tested in the assay are prepared from 10 mM compound stocks in 100% DMSO, equal amounts of DMSO without any compound are added to positive control and negative control samples.
During the incubation, a mix of the detection reagents is prepared in a buffer such that the enzymatic reaction is terminated due to chelating of Mg-ions and increased ionic strength, containing 50 mM Tris-HCl (pH 7.5), 700 mM NaCl, 20 mM EDTA, and 0.01% (w/v) Tween-20. Europium-streptavidin is pre-incubated with a 200-fold molar excess of a random sequence oligonucleotide to block unspecific binding of oligo, for two hours at ambient temperature in the dark. Afterwards, the blocked Europium-streptavidin is kept on ice until use.
At the end of the enzymatic reaction time, 5 μL detection oligo mix in the detection buffer is added, and assay plates are mixed and kept at ambient temperature for one hour, protected from light. The concentration of the Acceptor nucleotide oligo (e.g., ATTO647N-5′-[…]-3′) and Donor nucleotide oligo (e.g., bio-5′-[…](-bio)[…]-bio-3′) in each assay well is 1 nM, and 3 nM, respectively.
After incubation with oligo mix, 5 μL of pre-blocked Europium-streptavidin reagent is dispensed to each assay well, assay plates are again mixed and kept at ambient temperature for one hour, protected from light.
The generated signal is measured with BMG Pherastar microtiter plate reader with a TRF light unit, using excitation at 340 nm, an integration time of 200 μs, and a delay time of 100 μs, before detection at 620 nm and 665 nm. The ratio of donor- and acceptor-fluorescence is used as a measure of the generated transcript product (i.e. enzymatic activity).

Sequence of POLRMT (O00411 42-1230): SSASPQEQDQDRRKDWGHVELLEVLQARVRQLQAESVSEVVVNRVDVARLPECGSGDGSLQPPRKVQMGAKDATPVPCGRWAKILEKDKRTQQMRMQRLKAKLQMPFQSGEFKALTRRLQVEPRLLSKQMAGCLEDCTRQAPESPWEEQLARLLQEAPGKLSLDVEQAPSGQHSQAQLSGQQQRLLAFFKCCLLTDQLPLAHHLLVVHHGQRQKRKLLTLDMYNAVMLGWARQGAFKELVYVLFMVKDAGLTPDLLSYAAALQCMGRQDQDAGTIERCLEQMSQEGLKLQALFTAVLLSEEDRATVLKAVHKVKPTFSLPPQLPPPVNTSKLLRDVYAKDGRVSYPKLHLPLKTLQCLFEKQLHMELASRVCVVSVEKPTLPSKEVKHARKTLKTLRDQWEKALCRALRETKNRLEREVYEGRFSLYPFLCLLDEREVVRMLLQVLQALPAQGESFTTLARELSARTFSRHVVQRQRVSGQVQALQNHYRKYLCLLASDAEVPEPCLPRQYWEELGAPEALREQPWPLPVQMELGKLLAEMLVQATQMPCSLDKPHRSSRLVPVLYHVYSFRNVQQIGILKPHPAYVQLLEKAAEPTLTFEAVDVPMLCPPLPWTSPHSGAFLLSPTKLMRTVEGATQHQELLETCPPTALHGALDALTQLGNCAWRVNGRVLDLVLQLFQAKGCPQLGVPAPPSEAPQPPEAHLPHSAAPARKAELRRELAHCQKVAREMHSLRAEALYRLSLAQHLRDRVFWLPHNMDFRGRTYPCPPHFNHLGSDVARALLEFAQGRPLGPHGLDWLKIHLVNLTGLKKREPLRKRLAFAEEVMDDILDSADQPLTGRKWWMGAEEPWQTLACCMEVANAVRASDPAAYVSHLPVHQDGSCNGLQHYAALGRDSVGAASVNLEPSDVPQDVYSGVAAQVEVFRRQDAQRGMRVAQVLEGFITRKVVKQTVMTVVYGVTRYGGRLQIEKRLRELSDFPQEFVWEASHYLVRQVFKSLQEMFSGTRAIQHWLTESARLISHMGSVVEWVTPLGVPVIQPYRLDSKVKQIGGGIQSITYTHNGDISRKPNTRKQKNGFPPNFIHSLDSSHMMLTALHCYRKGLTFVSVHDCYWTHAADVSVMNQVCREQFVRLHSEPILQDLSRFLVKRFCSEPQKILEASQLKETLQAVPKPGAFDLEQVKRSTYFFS

Row | Structure (SMILES) | IC50
1 | Cc1ccccc1-c1cc(=O)oc2cc(CC(C)C(=O)N3CCC[C@H](S(N)(=O)=O)C3)ccc12 (single isomer, unassigned) [Example 98] | 14 µM
2 | Cc1ccccc1-c1cc(=O)oc2cc(CC(C)C(=O)N3CC[C@H](C(=O)O)C3)ccc12 (single isomer, unassigned) [Example 100] | 21 µM
3 | COC[C@@H](C(=O)N1CCC[C@H](C(=O)O)C1)N(C)c1ccc2c(-c3ccccc3C)cc(=O)oc2c1 (single isomer, unassigned) [Example 120] | 21 µM
4 | CC(=O)NC1CCCN(C(=O)c2ccc3c(-c4ccccc4C)cc(=O)oc3c2)C1 (single isomer, unassigned) [Example 175, N-(1-(2-oxo-4-(o-tolyl)-2H-chromene-7-carbonyl)piperidin-3-yl)acetamide] | > 100 µM
5 | CC(=O)NC1CCCN(C(=O)c2ccc3c(-c4ccccc4C)cc(=O)oc3c2)C1 (single isomer, unassigned) [Example 176, N-(1-(2-oxo-4-(o-tolyl)-2H-chromene-7-carbonyl)piperidin-3-yl)acetamide] | 75 µM
6 | COCC(Cc1ccc2c(-c3ccccc3C)cc(=O)oc2c1)C(N)=O (single isomer, unassigned) [Example 207, 3-methoxy-2-((2-oxo-4-(o-tolyl)-2H-chromen-7-yl)methyl)propanamide] | 17 µM
7 | Cc1ccc2c(-c3ccc(F)cc3Cl)cc(=O)oc2c1 [Example 03, 4-(2-chloro-4-fluorophenyl)-7-methyl-2H-chromen-2-one] | 19 µM
8 | CNCc1ccc2c(-c3ccc(F)cc3Cl)cc(=O)oc2c1 [Example 04, 4-(2-chloro-4-fluorophenyl)-7-((methylamino)methyl)-2H-chromen-2-one] | > 100 µM
9 | Cc1ccccc1-c1cc(=O)oc2cc(CO)ccc12 [Example 09, 7-(hydroxymethyl)-4-(o-tolyl)-2H-chromen-2-one] | 10 µM
10 | Nc1ccc2c(-c3ccc(F)cc3Cl)cc(=O)oc2c1 [Example 11, 7-amino-4-(2-chloro-4-fluorophenyl)-2H-chromen-2-one] | 24 µM
11 | Cc1cc(O)c2c(-c3ccc(F)cc3)cc(=O)oc2c1 [Example 12, 4-(4-fluorophenyl)-5-hydroxy-7-methyl-2H-chromen-2-one] | > 100 µM
12 | O=c1cc(-c2ccc(F)cc2Cl)c2ccc(CO)cc2o1 [Example 13, 4-(2-chloro-4-fluorophenyl)-7-(hydroxymethyl)-2H-chromen-2-one] | 10 µM
13 | CCOC(=O)/C(C)=C/c1ccc2c(-c3ccc(F)cc3Cl)cc(=O)oc2c1 [Example 14, ethyl (E)-3-(4-(2-chloro-4-fluorophenyl)-2-oxo-2H-chromen-7-yl)-2-methylacrylate] | 18 µM
14 | C[C@H](Cc1ccc2c(-c3ccc(F)cc3Cl)cc(=O)oc2c1)C(=O)N1CCCCC1 [Example 19, (R)-4-(2-chloro-4-fluorophenyl)-7-(2-methyl-3-oxo-3-(piperidin-1-yl)propyl)-2H-chromen-2-one] | 24 µM
15 | C[C@H](Cc1ccc2c(-c3ccc(F)cc3Cl)cc(=O)oc2c1)C(=O)N(C)C [Example 21, (R)-3-(4-(2-chloro-4-fluorophenyl)-2-oxo-2H-chromen-7-yl)-N,N,2-trimethylpropanamide] | 49 µM
16 | CCCNC(=O)c1ccc2c(-c3ccc(F)cc3Cl)cc(=O)oc2c1 [Example 22, 4-(2-chloro-4-fluorophenyl)-2-oxo-N-propyl-2H-chromene-7-carboxamide] | 25 µM
17 | CCN(C)C(=O)c1ccc2c(-c3ccc(F)cc3Cl)cc(=O)oc2c1 [Example 23, 4-(2-chloro-4-fluorophenyl)-N-ethyl-N-methyl-2-oxo-2H-chromene-7-carboxamide] | 19 µM

Stronger by IC50, values ahead:

Row | IC50 | Structure (SMILES)
18 | 7 µM | CCOC(=O)[C@H]1CCCN(C(=O)N(C)Cc2ccc3c(-c4ccc(F)cc4Cl)cc(=O)oc3c2)C1 [Example 07, ethyl (S)-1-(((4-(2-chloro-4-fluorophenyl)-2-oxo-2H-chromen-7-yl)methyl)(methyl)carbamoyl)piperidine-3-carboxylate]
19 | 4 µM | CN(Cc1ccc2c(-c3ccc(F)cc3Cl)cc(=O)oc2c1)C(=O)N1CCCCC1 [Example 05, N-((4-(2-chloro-4-fluorophenyl)-2-oxo-2H-chromen-7-yl)methyl)-N-methylpiperidine-1-carboxamide]
20 | 3 µM | COCC(Cc1ccc2c(-c3ccccc3C)cc(=O)oc2c1)C(N)=O (single isomer, unassigned) [Example 208, 3-methoxy-2-((2-oxo-4-(o-tolyl)-2H-chromen-7-yl)methyl)propanamide]
21 | 3 µM | CN(C)C(=O)N(C)Cc1ccc2c(-c3ccc(F)cc3Cl)cc(=O)oc2c1 [Example 06, 1-((4-(2-chloro-4-fluorophenyl)-2-oxo-2H-chromen-7-yl)methyl)-1,3,3-trimethylurea]
22 | 2 µM | CNC(=O)c1ccc2c(-c3ccccc3C)cc(=O)oc2c1 [Example 02, N-methyl-2-oxo-4-(o-tolyl)-2H-chromene-7-carboxamide]
23 | 2 µM | COC(=O)C(C)Cc1ccc2c(-c3ccc(F)cc3Cl)cc(=O)oc2c1 (centres unmarked) [Example 15, methyl 3-(4-(2-chloro-4-fluorophenyl)-2-oxo-2H-chromen-7-yl)-2-methylpropanoate]
24 | 1 µM | Cc1ccccc1-c1cc(=O)oc2cc(NCC(C)C(=O)O)ccc12 (single isomer, unassigned) [Example 154-1, 2-methyl-3-((2-oxo-4-(o-tolyl)-2H-chromen-7-yl)amino)propanoic acid]
25 | 1 µM | CN(Cc1ccc2c(-c3ccc(F)cc3Cl)cc(=O)oc2c1)C(=O)N1CCC[C@H](C(=O)O)C1 [Example 08, (S)-1-(((4-(2-chloro-4-fluorophenyl)-2-oxo-2H-chromen-7-yl)methyl)(methyl)carbamoyl)piperidine-3-carboxylic acid]
26 | 1 µM | COCc1ccc2c(-c3ccc(F)cc3Cl)cc(=O)oc2c1 [Example 16, 4-(2-chloro-4-fluorophenyl)-7-(methoxymethyl)-2H-chromen-2-one]
27 | 0.9 µM | Cc1ccccc1-c1cc(=O)oc2cc(NC(C)C(N)=O)ccc12 (single isomer, unassigned) [Example 189, 2-((2-oxo-4-(o-tolyl)-2H-chromen-7-yl)amino)propanamide]
28 | 0.8 µM | Cc1ccccc1-c1cc(=O)oc2cc(NC(C)C(N)=O)ccc12 (single isomer, unassigned) [Example 190, 2-((2-oxo-4-(o-tolyl)-2H-chromen-7-yl)amino)propanamide]
29 | 0.8 µM | C[C@@H](Cc1ccc2c(-c3ccc(F)cc3Cl)cc(=O)oc2c1)C(=O)N(C)C [Example 20, (S)-3-(4-(2-chloro-4-fluorophenyl)-2-oxo-2H-chromen-7-yl)-N,N,2-trimethylpropanamide]
30 | 0.5 µM | Cc1ccccc1-c1cc(=O)oc2cc(N(C)CC(C)C(=O)O)ccc12 (single isomer, unassigned) [Example 154-2]
31 | 0.5 µM | Cc1ccccc1-c1cc(=O)oc2cc(NCC(C)C(=O)O)ccc12 (single isomer, unassigned) [Example 155-1, 2-methyl-3-((2-oxo-4-(o-tolyl)-2H-chromen-7-yl)amino)propanoic acid]
32 | 0.4 µM | Cc1ccccc1-c1cc(=O)oc2cc(CC(C)C(=O)N3CC[C@H](C(=O)O)C3)ccc12 (single isomer, unassigned) [Example 99]
33 | 0.4 µM | Cc1ccccc1-c1cc(=O)oc2cc(N(C)C)ccc12 [Example 01, 7-(dimethylamino)-4-(o-tolyl)-2H-chromen-2-one]
34 | 0.4 µM | COCc1ccc2c(-c3ccccc3C)cc(=O)oc2c1 [Example 10, 7-(methoxymethyl)-4-(o-tolyl)-2H-chromen-2-one]
35 | 0.4 µM | CNc1ccc2c(-c3ccc(F)cc3Cl)cc(=O)oc2c1 [Example 25, 4-(2-chloro-4-fluorophenyl)-7-(methylamino)-2H-chromen-2-one]
36 | 0.3 µM | Cc1ccccc1-c1cc(=O)oc2cc(CC(C)C(=O)N3CCC[C@H](S(N)(=O)=O)C3)ccc12 (single isomer, unassigned) [Example 97]
37 | 0.3 µM | COC[C@@H](C(=O)N1CCC[C@H](C(=O)O)C1)N(C)c1ccc2c(-c3ccccc3C)cc(=O)oc2c1 (single isomer, unassigned) [Example 121]
38 | 0.2 µM | C[C@@H](Cc1ccc2c(-c3ccc(F)cc3Cl)cc(=O)oc2c1)C(=O)N1CCCCC1 [Example 18, (S)-4-(2-chloro-4-fluorophenyl)-7-(2-methyl-3-oxo-3-(piperidin-1-yl)propyl)-2H-chromen-2-one]
